Experimental data reported in US8993000B2, “Method for inducing differentiation of dental pulp cells into odontoblasts” (National University Corporation Okayama University, priority 2009, dated 2015).

Tested on: MEDP cells as a pulp-derived cell line
Experiment: Dspp expression by PCR in cultured MEDP pulp-derived cells (induction of differentiation into odontoblasts)
Type: cell-based
Conditions: for expression of Dspp (relative ratio of DSPP to GADPH amplification product): fibronectin-coated vessel; for expression of Dspp in a pulp-derived cell line: same technique as Example 1, addition concentration to be considered
Method: In this example, MEDP cells as a pulp-derived cell line were cultured in a system including NaClO3, and the expression of Dspp in the cultured cells was confirmed. The expression of Dspp was confirmed by PCR.
The MEDP cells were cultured using a DMEM medium containing 10% v/v fetal bovine serum (FBS). The cells were suspended in the medium so that the number of the cells was 3.7×10^5 cells/ml, and 5 ml of the cell suspension were added to a culture vessel having a diameter of 6 cm and cultured. The culture was carried out using a culture vessel coated with fibronectin (FN) at 37±0.5° C. On day 1 of the culture, […] was added so that the final concentration was 50 mM or 100 mM, and the cells were cultured for an additional 7 days.
After mRNA had been extracted from the cultured cells using an RNeasy Mini Kit™ (manufactured by QIAGEN), reverse transcription was carried out using a PrimeScript™ Reverse Transcriptase (manufactured by TAKARA) to prepare cDNA, which was used as a sample for PCR. The extraction of mRNA and the preparation of cDNA were carried out in accordance with the manufacturer's instructions. Primers formed of base sequences set forth in SEQ ID NOS: 1 and 2 of the sequence listing were used as primers for amplification of DSPP, and primers formed of base sequences set forth in SEQ ID NOS: 3 and 4 of the sequence listing were used as primers for amplification of GADPH as a control gene. The PCR was carried out using a LightCycler™ (manufactured by Roche). The expression amount of DSPP was confirmed with a relative ratio between an amplification product of DSPP and an amplification product of GADPH.
A treatment for inducing differentiation was carried out by the same technique as that of Example 1 except that LiCl was used in place of NaClO3 and LiCl was added so that the final concentration was 5 mM or 50 mM on day 1 of the culture. Then, the expression of Dspp was confirmed.
A treatment for inducing differentiation was carried out by the same technique as that of Example 1 except that NaClO4 was used in place of NaClO3. Then, the expression of Dspp was confirmed.
A treatment for inducing differentiation is carried out by the same technique as that of Example 1 except that Norrin (R&D Systems, Inc.: catalog No.: 3014-NR) is used in place of NaClO3. Then, the expression of Dspp is confirmed. The addition concentration of Norrin is to be considered.
A treatment for inducing differentiation is carried out by the same technique as that of Example 1 except that R-Spondin2 (R&D Systems, Inc.: catalog No.: 3266-RS/CF) is used in place of NaClO3. Then, the expression of Dspp is confirmed. The addition concentration of R-Spondin2 is to be considered.

[1] = 50 mM or 100 mM added on day 1, cultured additional 7 days

For [Cl-].[Li+] [LiCl, lithium chloride], the “expression of Dspp (relative ratio of DSPP to GADPH amplification product)” value (5 mM or 50 mM added on day 1, cultured additional 7 days) was “significantly enhanced”.

With [Na+].[O-][Cl+2]([O-])[O-] [NaClO3, sodium chlorate] the “expression of Dspp (relative ratio of DSPP to GADPH amplification product)” value [1] was “significantly enhanced”.

[O-][Cl+3]([O-])([O-])O [sodium perchlorate] was tested, and the “expression of Dspp (relative ratio of DSPP to GADPH amplification product)” value [1] was “significantly enhanced”.

B1: Norrin: protein capable of directly activating a Wnt signaling pathway (R&D Systems, catalog No. 3014-NR) (protein, UniProt Q00604 25-133, looked up)
Norrin: KTDSSFIMDSDPRRCMRHHYVDSISHPLYKCSSKMVLLARCEGHCSQASRSEPLVSFSTVLKQPFRSSCHCCRPQTSKLKALRLRCSGGMRLTATYRYILSCHCEECNS
For B1, the “expression of Dspp in a pulp-derived cell line” value was “significantly enhances”.

B2: R-Spondin2: protein capable of directly activating a Wnt signaling pathway (R&D Systems, catalog No. 3266-RS/CF) (protein, UniProt Q6UXX9 22-243, looked up)
R-spondin-2: QGNRWRRSKRASYVSNPICKGCLSCSKDNGCSRCQQKLFFFLRREGMRQYGECLHSCPSGYYGHRAPDMNRCARCRIENCDSCFSKDFCTKCKVGFYLHRGRCFDECPDGFAPLEETMECVEGCEVGHWSEWGTCSRNNRTCGFKWGLETRTRQIVKKPVKDTILCPTIAESRRCKMTMRHCPGGKRTPKAKEKRNKKKKRKLIERAQEQHSVFLATDRANQ
In the case of B2, the “expression of Dspp in a pulp-derived cell line” value is reported as “significantly enhances”.
